These results are taken from patent publication US10123993B2, “Cyclic ureas as inhibitors of rock” (BRISTOL-MYERS SQUIBB COMPANY, priority 2015, dated 2018).

Counter-ions that a name gives are not always drawn.

Sequence of ROCK2 (O75116 whole entry, species assumed): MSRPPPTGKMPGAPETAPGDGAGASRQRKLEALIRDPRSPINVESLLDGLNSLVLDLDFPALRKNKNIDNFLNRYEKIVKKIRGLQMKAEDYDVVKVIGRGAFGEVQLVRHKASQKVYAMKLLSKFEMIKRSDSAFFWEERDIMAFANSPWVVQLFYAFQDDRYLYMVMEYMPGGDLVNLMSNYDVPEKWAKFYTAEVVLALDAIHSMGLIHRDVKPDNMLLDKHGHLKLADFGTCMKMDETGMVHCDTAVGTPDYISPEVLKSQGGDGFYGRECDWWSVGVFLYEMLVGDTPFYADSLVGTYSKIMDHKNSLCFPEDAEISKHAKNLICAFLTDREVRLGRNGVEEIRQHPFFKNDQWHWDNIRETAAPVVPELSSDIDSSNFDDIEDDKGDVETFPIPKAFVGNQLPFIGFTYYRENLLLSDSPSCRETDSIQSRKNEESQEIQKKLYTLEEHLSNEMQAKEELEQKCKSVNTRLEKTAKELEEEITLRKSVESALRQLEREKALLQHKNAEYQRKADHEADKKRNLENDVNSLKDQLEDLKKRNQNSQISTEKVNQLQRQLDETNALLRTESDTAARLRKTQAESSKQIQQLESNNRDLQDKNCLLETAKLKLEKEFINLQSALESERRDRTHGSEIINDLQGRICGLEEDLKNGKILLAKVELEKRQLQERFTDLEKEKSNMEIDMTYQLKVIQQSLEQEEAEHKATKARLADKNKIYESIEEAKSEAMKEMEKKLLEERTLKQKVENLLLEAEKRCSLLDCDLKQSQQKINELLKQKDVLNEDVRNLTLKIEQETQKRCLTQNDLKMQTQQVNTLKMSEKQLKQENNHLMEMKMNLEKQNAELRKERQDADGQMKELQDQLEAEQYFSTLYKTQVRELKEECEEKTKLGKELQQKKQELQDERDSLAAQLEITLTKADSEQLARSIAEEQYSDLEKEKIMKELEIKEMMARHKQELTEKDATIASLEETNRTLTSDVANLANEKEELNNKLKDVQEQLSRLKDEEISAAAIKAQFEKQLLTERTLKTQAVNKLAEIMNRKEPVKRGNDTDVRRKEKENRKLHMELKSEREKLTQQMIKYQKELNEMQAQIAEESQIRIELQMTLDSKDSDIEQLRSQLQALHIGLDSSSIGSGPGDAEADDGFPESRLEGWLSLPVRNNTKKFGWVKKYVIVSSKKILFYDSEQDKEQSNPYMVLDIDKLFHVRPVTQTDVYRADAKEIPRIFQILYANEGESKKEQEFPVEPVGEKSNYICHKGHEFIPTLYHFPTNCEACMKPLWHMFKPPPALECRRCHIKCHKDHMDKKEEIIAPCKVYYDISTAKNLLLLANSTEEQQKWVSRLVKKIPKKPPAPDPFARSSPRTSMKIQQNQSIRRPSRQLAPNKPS

The test concerns the target ROCK2 (Homo sapiens, UniProt O75116). Briefly: ROCK2 kinase inhibition assay (Caliper LABCHIP, FITC peptide substrate). It counts as biochemical. The following applies: 5 μM ATP, 1.5 μM peptide substrate; value ranges. In short, it runs like this: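 Rho kinase with 5 μM ATP and 1.5 μM FITC-AHA-AKRRRLSSLRA-OH peptide in HEPES pH 7.5, 20 mM MgCl2, 0.015% Brij-35, 4 mM DTT, DMSO <2%. EDTA stop; phospho and non-phospho peptide separated on LabChip. IC50 from dose-response fit.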
Consider `COc1cc(F)cc(CN2C(=O)N(c3ccc(-c4cn[nH]c4)c(C)n3)CC2(C)C)c1` [Example 151, 3-(3-fluoro-5-methoxy-benzyl)-4,4-dimethyl-1-(6-methyl-5-(1H-pyrazol-4-yl)pyridin-2-yl)-imidazolidin-2-one], for which the IC50 – broadly, the concentration needed to halve the response being measured – fell in the range of 2.1 to 20 nM.

Turning to `CCc1cc(N2CCN(CCc3cccc(OC)c3)C2=O)ccc1-c1cn[nH]c1` [Example 27, 1-(3-Ethyl-4-(1H-pyrazol-4-yl)phenyl)-3-(3-methoxyphenethyl)imidazolidin-2-one, TFA], the concentration for half-maximal inhibition (IC50) was in the range of 200 to 2000 nM.

With `COc1cc(CN2C(=O)N(c3ccc(-c4cn[nH]c4)cc3)CC2(C)C)ccc1F` [Example 140, 1-(4-(1H-pyrazol-4-yl)phenyl)-3-(4-fluoro-3-methoxy-benzyl)-4,4-dimethyl-imidazolidin-2-one], the IC50 was in the range of 2.1 to 20 nM.

`CCOC(=O)C1CN(Cc2cccc(OC)c2)C(=O)N1c1ccc(-c2cn[nH]c2)cc1` (centres unmarked) [Example 36, Ethyl 3-(4-(1H-pyrazol-4-yl)phenyl)-1-(3-methoxybenzyl)-2-oxoimidazolidine-4-carboxylate] showed an IC50 of 2.1 to 20 nM.

`COc1nc(N2CCN(Cc3cccc(OCC4CC4)c3)C2=O)ccc1-c1cn[nH]c1` [Example 475, 1-(3-(cyclopropylmethoxy)benzyl)-3-(6-methoxy-5-(1H-pyrazol-4-yl)pyridin-2-yl)imidazolidin-2-one] showed an IC50 of less than 2 nM.

In turn, `COc1cc(CN2CCN(c3ccc(-c4cn[nH]c4)c(C)c3)C2=O)ccc1F` [Example 282, 1-(4-fluoro-3-methoxybenzyl)-3-(3-methyl-4-(1H-pyrazol-4-yl)-phenyl)imidazolidin-2-one] had a half-maximal inhibitory concentration (IC50) of 2.1 to 20 nM.

`COc1cc(F)cc(C(C)N2CCN(c3ccc(-c4cn[nH]c4)cc3)C2=O)c1` (single isomer, unassigned) [Example 198, 1-(4-(1H-pyrazol-4-yl)-phenyl)-3-(1-(3-fluoro-5-methoxy-phenyl)ethyl) imidazolidin-2-one] came in with an IC50 of 200 to 2000 nM.

Regarding `COc1cccc(CN2C(=O)N(c3ccc(-c4cn[nH]c4)cc3)CC2CO)c1` (single isomer, unassigned; (-)) [Example 43, (−)-1-(4-(1H-Pyrazol-4-yl)phenyl)-4-(hydroxymethyl)-3-(3-methoxybenzyl)imidazolidin-2-one], the 50% inhibitory concentration (IC50) was less than 2 nM.

On to `COc1cccc(CN2CCN(c3ccc(-c4ccncc4F)c(C)n3)C2=O)c1` [Example 205, 1-(3′-fluoro-2-methyl-[3,4′-bipyridin]-6-yl)-3-(3-methoxy-benzyl) imidazolidin-2-one], for which the IC50 lay in the range of 200 to 2000 nM.

Molecule `COc1nc(-n2ccn(Cc3cccc(OCC4CC4)c3)c2=O)ccc1-c1cn[nH]c1` [Example 378, 1-(3-(cyclopropylmethoxy)benzyl)-3-(6-methoxy-5-(1H-pyrazol-4-yl)pyridin-2-yl)-1H-imidazol-2(3H)-one] showed an IC50 of less than 2 nM.

In turn, `COc1cc(F)cc(Cn2ccn(-c3ccc(-c4cn[nH]c4)c(OC)c3)c2=O)c1` [Example 343, 1-(3-fluoro-5-methoxybenzyl)-3-(3-methoxy-4-(1H-pyrazol-4-yl)phenyl)-1H-imidazol-2(3H)-one] came in with a half-inhibitory concentration (IC50) of 2.1 to 20 nM.

`O=C(O)C1CN(Cc2cccc(F)c2)C(=O)N1c1ccc(-c2cn[nH]c2)cc1` (centres unmarked) [Example 33, 3-(4-(1H-Pyrazol-4-yl)phenyl)-1-(3-fluorobenzyl)-2-oxoimidazolidine-4-carboxylic Acid] displayed a concentration for half-maximal inhibition (IC50) of 200 to 2000 nM.

The molecule `O=C1N(Cc2ccc(F)cc2)CCN1c1ccc(-c2cn[nH]c2)cc1` [Example 5, 1-(4-(1H-pyrazol-4-yl)phenyl)-3-(4-fluorobenzyl)imidazolidin-2-one] had an IC50 of 20.1 to 200 nM.

`Cc1nc(N2CCN(Cc3ccc(F)c(OCC4CC4)c3)C2=O)ccc1-c1cn[nH]c1` [Example 210, 1-(3-(cyclopropylmethoxy)-4-fluorobenzyl)-3-(6-methyl-5-(1H-pyrazol-4-yl)pyridin-2-yl)imidazolidin-2-one] displayed an IC50 of 20.1 to 200 nM.

For `O=C1N(c2ccc(-c3cn[nH]c3)cc2)C[C@@H](CO)N1Cc1cccc(OCC2CC2)c1` [Example 476, (S)-1-(4-(1H-pyrazol-4-yl)phenyl)-3-(3-(cyclopropylmethoxy)benzyl)-4-(hydroxymethyl)imidazolidin-2-one], the IC50 was 2.1 to 20 nM.

`COc1cc(F)cc(CN2CCN(c3cc(F)c(-c4cn[nH]c4)cc3F)C2=O)c1` [Example 448, 1-(2,5-difluoro-4-(1H-pyrazol-4-yl)phenyl)-3-(3-fluoro-5-methoxybenzyl)imidazolidin-2-one]: the IC50 lay in the range of 20.1 to 200 nM.

`COc1cccc([C@@H](C)N2CCN(c3ccc(-c4cn[nH]c4)cc3)C2=O)c1` [Example 122, (R)-1-(4-(1H-Pyrazol-4-yl)phenyl)-3-(1-(3-methoxyphenyl)ethyl)imidazolidin-2-one] gave a half-inhibitory concentration (IC50) of less than 2 nM.

`CCc1cc(N2CC(C)(C)N(Cc3cc(F)cc(OC)c3)C2=O)ccc1-c1cn[nH]c1` [Example 147, 1-(3-ethyl-4-(1H-pyrazol-4-yl)-phenyl)-3-(3-fluoro-5-methoxy-benzyl)-4,4-dimethyl-imidazolidin-2-one] displayed an IC50 of 2.1 to 20 nM.

Molecule `COc1cccc(C(CO)N2CCN(c3ccc(-c4cn[nH]c4)c(F)c3)C2=O)c1` (centres unmarked) [Example 463, 1-(3-fluoro-4-(1H-pyrazol-4-yl)phenyl)-3-(2-hydroxy-1-(3-methoxyphenyl)ethyl)imidazolidin-2-one] returned a concentration for half-maximal inhibition (IC50) of 2.1 to 20 nM.

With `COc1cccc(C(C)N2CCN(c3ccc(-c4cn[nH]c4)cn3)C2=O)c1` (single isomer, unassigned) [Example 460, 1-(5-(1H-pyrazol-4-yl)pyridin-2-yl)-3-(1-(3-methoxyphenyl)ethyl)imidazolidin-2-one], the IC50 was less than 2 nM.

With `COc1cccc(CN2C(=O)N(c3ccc(-c4cn[nH]c4)cc3)C(=O)C2CO)c1` (centres unmarked) [Example 153, 3-(4-(1H-Pyrazol-4-yl)phenyl)-5-(hydroxymethyl)-1-(3-methoxybenzyl)imidazolidine-2,4-dione], the IC50 was 200 to 2000 nM.

Molecule `O=C1N(Cc2ccc(Cl)c(Cl)c2)CCN1c1ccc(-c2cn[nH]c2)cn1` [Example 241, 1-(5-(1H-pyrazol-4-yl)pyridin-2-yl)-3-(3,4-dichlorobenzyl)imidazolidin-2-one] gave an IC50 of 200 to 2000 nM.

In turn, `CCc1nc(N2CCN(C(C)c3ccc(F)c(OC)c3)C2=O)ccc1-c1cn[nH]c1` (single isomer, unassigned) [Example 270, 1-(6-ethyl-5-(1H-pyrazol-4-yl)pyridin-2-yl)-3-(1-(4-fluoro-3-methoxyphenyl)ethyl)imidazolidin-2-one] displayed a half-maximal inhibitory concentration (IC50) of 2.1 to 20 nM.

For the molecule `CCc1cc(-n2ccn(C(C)c3cccc(OC)c3)c2=O)ccc1-c1cn[nH]c1` (single isomer, unassigned) [Example 353, 1-(3-ethyl-4-(1H-pyrazol-4-yl)phenyl)-3-(1-(3-methoxyphenyl)ethyl)-1H-imidazol-2(3H)-one], the 50% inhibitory concentration (IC50) was 2.1 to 20 nM.

Regarding `COc1cc(CN2CCN(c3ccc(-c4cn[nH]c4)c(C#N)c3)C2=O)ccc1F` [Example 279, 5-(3-(4-fluoro-3-methoxybenzyl)-2-oxoimidazolidin-1-yl)-2-(1H-pyrazol-4-yl)benzonitrile], the IC50 was 200 to 2000 nM.

For the molecule `CCc1nc(N2CCN(C(C)c3cccc(OC)c3)C2=O)ccc1-c1cn[nH]c1` (single isomer, unassigned) [Example 173, 1-(6-ethyl-5-(1H-pyrazol-4-yl)pyridin-2-yl)-3-(1-(3-methoxy-phenyl)ethyl) imidazolidin-2-one], the 50% inhibitory concentration (IC50) is less than 2 nM.

In turn, `CC1(C)CN(c2ccc(-c3cn[nH]c3)cc2)C(=O)N1Cc1cccc(OC(F)F)c1` [Example 142, 1-(4-(1H-pyrazol-4-yl)phenyl)-3-(3-(difluoro-methoxy)-benzyl)-4,4-dimethyl-imidazolidin-2-one] registered an IC50 of 20.1 to 200 nM.

`CC(C)COc1cccc(CN2CCN(c3ccc(-c4cn[nH]c4)c(F)c3)C2=O)c1` [Example 443, 1-(3-fluoro-4-(1H-pyrazol-4-yl)phenyl)-3-(3-isobutoxybenzyl)imidazolidin-2-one] registered a concentration for half-maximal inhibition (IC50) of 2.1 to 20 nM.

Molecule `COc1cc(F)cc(C(C)n2ccn(-c3ccc(-c4cn[nH]c4)c(OC)n3)c2=O)c1` (single isomer, unassigned) [Example 398, 1-(1-(3-fluoro-5-methoxyphenyl)ethyl)-3-(6-methoxy-5-(1H-pyrazol-4-yl)pyridin-2-yl)-1H-imidazol-2(3H)-one] registered a half-inhibitory concentration (IC50) of 2.1 to 20 nM.

As for `COc1cccc(C(C)(CO)N2CCN(c3ccc(-c4cn[nH]c4)cc3)C2=O)c1` (single isomer, unassigned) [Example 287, 1-(4-(1H-Pyrazol-4-yl)phenyl)-3-(1-hydroxy-2-(3-methoxyphenyl)propan-2-yl)imidazolidin-2-one], the IC50 lay in the range of 20.1 to 200 nM.

Molecule `COc1cccc(Cn2ccn(-c3ccc(-c4cn[nH]c4)c(OC)c3)c2=O)c1` [Example 342, 1-(3-methoxy-4-(1H-pyrazol-4-yl)phenyl)-3-(3-methoxybenzyl)-1H-imidazol-2(3H)-one] came in with an IC50 of less than 2 nM.

Consider `COc1nc(N2CCN(Cc3cccc(F)c3OC)C2=O)ccc1-c1cn[nH]c1` [Example 225, 1-(3-fluoro-2-methoxybenzyl)-3-(6-methoxy-5-(1H-pyrazol-4-yl)pyridin-2-yl)imidazolidin-2-one], for which the concentration for half-maximal inhibition (IC50) lay in the range of 2.1 to 20 nM.

With `COc1cc(CN2CCN(c3ccc(-c4cn[nH]c4)nc3)C2=O)ccc1F` [Example 440, 1-(6-(1H-pyrazol-4-yl)pyridin-3-yl)-3-(4-fluoro-3-methoxybenzyl)imidazolidin-2-one], the half-maximal inhibitory concentration (IC50) fell in the range of 20.1 to 200 nM.

With `CCOc1cccc(C(C)n2ccn(-c3ccc(-c4cn[nH]c4)c(CC)n3)c2=O)c1` (single isomer, unassigned) [Example 365, 1-(1-(3-ethoxyphenyl)ethyl)-3-(6-ethyl-5-(1H-pyrazol-4-yl)pyridin-2-yl)-1H-imidazol-2(3H)-one], the concentration for half-maximal inhibition (IC50) was 200 to 2000 nM.

Molecule `COc1nc(N2CCN(Cc3cccc(F)c3)C2=O)ccc1-c1cn[nH]c1` [Example 226, 1-(3-fluorobenzyl)-3-(6-methoxy-5-(1H-pyrazol-4-yl)pyridin-2-yl)imidazolidin-2-one] displayed a 50% inhibitory concentration (IC50) of less than 2 nM.
